Data published in PMC6247689, “Determination of the volatile and polyphenol constituents and the antimicrobial, antioxidant, and tyrosinase inhibitory activities of the bioactive compounds from the by-product of Rosa rugosa Thunb. var. plena Regal tea” (BMC Complementary and Alternative Medicine, 2018).
≈ marks a conversion by molar mass, not a printed value. Read-outs that look alike come from different tables or passages of the source.

Tests used:
[1] = DPPH radical scavenging activity; conditions: 30 min in the dark, 517 nm; positive control = ascorbic acid
Method: The antioxidant activity of RFCS and the standards were evaluated by DPPH radical scavenging activity using a slightly modified version of a previously reported method. […] Aliquots (100 μL) of the supernatants were transferred into a 96-well microplate, and the absorbance of each was recorded at 517 nm using a Spectramax Plus384 UV-Vis spectrophotometer (Molecular Devices, Sunnyvale, California, USA). […] The IC50 values, which represent the concentrations of rose samples and standard substance at which 50% of the DPPH radical was inhibited, were determined. The tests were performed in triplicate, and the percentage of DPPH scavenging was calculated using the following equation. Inhibition%=H0-H/H0×100 H:Absorbance of RFCS and the standards;H0:Absorbance of the blank

ABTS radical scavenging = conditions: 30 °C, 30 min; positive control = Trolox
Method: The ABTS assay of RFCS was performed according to a modified version of a previously reported method. Briefly, the stock solutions were generated by mixing equal quantities of 7.4 mM ABTS^●+ solution and 2.6 mM potassium persulfate solution, and the mixture was incubated at room temperature for 12 h in the dark. Then, the solution was equilibrated with 1 mL of ABTS^●+ solution with 50% ethanol serving as a positive control. The absorbance of the solution at 734 nm was 1.17 ± 0.02 units. […] The mixture was mixed vigorously and incubated at 30 °C for 30 min. The absorbance was then measured at […] using the spectrophotometer. […] Inhibition%=Absorbance of blank-Absorbance of sample/Absorbance of blank×100

mushroom tyrosinase = assay: Tyrosinase inhibitory activity (spectrophotometric, DOPA substrate); type: biochemical; conditions: pH 6.8, 37 °C, 15 min, positive control = kojic acid
Method: The reaction mixture was vortexed and maintained at 37 °C for 15 min, and then the absorption maximum of dopachrome (set at 479 nm) was measured using a microplate reader (Molecular Devices, Sunnyvale, California, USA). The tests were performed in triplicate, and the value of tyrosinase inhibition activity was calculated as described above.

[2] = test system: Escherichia coli (ATCC 25922); assay: MIC and MBC, broth microdilution; type: cell-based; conditions: E. coli; for MIC: 37 °C, 24 h
Method: (§1) The antimicrobial activity was measured by the method described by Xue. All standard strains were obtained from the Guangdong Microbiology Culture Center (Guangzhou, China). Listeria ivanovii (ATCC 19119) was cultured in BHI, Salmonella enteritidis enteritidis (ATCC 14028) Staphylococcus aureus (ATCC 25923) and Escherichia coli (ATCC 25922) were cultured in nutrient agar (NA) for 24 h and at 37 °C. candida albicans (ATCC 10231) was cultured in PHB at 37 °C for 24 h. Propionibacterium acnes (ATCC 6919) and Fusobacterium nucleatum (ATCC 10953) were cultured in CDC agar at 37 °C for 48 h in a YQX-II anaerobic incubator (Shanghai, China). The final cell counts in l mL of broth were approximately 10^6 colony-forming units (CFU/mL). A 10 mg/mL solution of miconazole nitrate and hydrochloride tetracycline in water was used as a positive control against fungi and bacteria, respectly.
(§2) The MIC and MBC or MFC values were determined as described previously by Xue. Briefly, 100 μL dilutions (approximately 100,000 CFU/mL) of Staphylococcus aureus, Escherichia coli, Salmonella enteritidis enteritidis, Fusobacterium nucleatum, and Candida albicans in nutrient broth and Listeria ivanovii and Propionibacterium acnes in GMA broth were inoculated into microtiter plates. Then, 100 μL aliquots of the solutions of the test compound were added after a two-fold serial dilution with nutrient broth (from 2 mg/mL to 3 μg/mL). Broths with 5% (v/v) DMSO were used as controls. The petri dishes were incubated at 37 °C for 24 h with the exception of Propionibacterium acnes and Fusobacterium nucleatum, which were incubated at 37 °C for 48 h. The MIC was recorded as the lowest concentration of sample showing no detectable growth. To determine the MBC or MFC values for no bacterial or fungus growth, 10 μL of sub-inhibitory concentrations of the test compounds were incubated on CDC or GMA agar plates for 24 or 48 h. Every determination was carried out in triplicate.

[3] = test system: Fusobacterium nucleatum (ATCC 10953); assay: MIC and MBC, broth microdilution; type: cell-based; conditions: F. nucleatum; for MIC: anaerobic, 37 °C, 48 h
Method: as §1, §2

[4] = test system: Listeria ivanovii (ATCC 19119); assay: MIC and MBC, broth microdilution; type: cell-based; conditions: L. ivanovii; for MIC: 37 °C, 24 h
Method: as §1, §2

[5] = test system: Propionibacterium acnes (ATCC 6919); assay: MIC and MBC, broth microdilution; type: cell-based; conditions: P. acnes; for MIC: anaerobic, 37 °C, 48 h
Method: as §1, §2

[6] = test system: Salmonella enteritidis enteritidis (ATCC 14028); assay: MIC and MBC, broth microdilution; type: cell-based; conditions: S. enteritidis enteritidis; for MIC: 37 °C, 24 h
Method: as §1, §2

[7] = test system: Staphylococcus aureus (ATCC 25923); assay: MIC and MBC, broth microdilution; type: cell-based; conditions: S. aureus; for MIC: 37 °C, 24 h
Method: as §1, §2

[8] = test system: candida albicans (ATCC 10231); assay: MIC and MFC, broth microdilution; type: cell-based; conditions: C. albicans; for MIC: 37 °C, 24 h
Method: as §1, §2

[9] = Escherichia coli, ATCC25922, read-out: MIC
[10] = Escherichia coli, ATCC25922, read-out: MBC
[11] = Fusobacterium nucleatum, ATCC10953, read-out: MIC
[12] = Fusobacterium nucleatum, ATCC10953, read-out: MBC
[13] = Listeria ivanovii, ATCC19119, read-out: MIC
[14] = Listeria ivanovii, ATCC19119, read-out: MBC
[15] = Cutibacterium acnes, ATCC6919, read-out: MIC
[16] = Cutibacterium acnes, ATCC6919, read-out: MBC
[17] = Salmonella enterica, read-out: MIC
[18] = Salmonella enterica, read-out: MBC
[19] = Staphylococcus aureus, ATCC25923, read-out: MIC
[20] = Staphylococcus aureus, ATCC25923, read-out: MBC
[21] = Candida albicans, ATCC10231, read-out: MIC
[22] = Candida albicans, ATCC10231, read-out: MFC

| Compound | DPPH radical scavenging activity IC50 [1] | ABTS radical scavenging activity IC50 (ABTS radical scavenging) | Tyrosinase inhibition IC50 (mushroom tyrosinase) | MIC [2, 9] [µg/mL] | MBC [2, 10] [µg/mL] | MIC [3, 11] [µg/mL] | MBC [3, 12] [µg/mL] | MIC [4, 13] [µg/mL] | MBC [4, 14] [µg/mL] | MIC [5, 15] [µg/mL] | MBC [5, 16] [µg/mL] | MIC [6, 17] [µg/mL] | MBC [6, 18] [µg/mL] | MIC [7, 19] [µg/mL] | MBC [7, 20] [µg/mL] | MIC [8, 21] [µg/mL] | MFC [8, 22] [µg/mL] | other results |
| --- | --- | --- | --- | --- | --- | --- | --- | --- | --- | --- | --- | --- | --- | --- | --- | --- | --- | --- |
| C=CC(C)(O)CCC=C(C)C (centres unmarked) [Linalool] | > 10,000 a μg/mL | > 10,000 a μg/mL | 730 ± 44 a μg/mL | 250 (≈ 1620 µM) | 1000 (≈ 6480 µM) | 250 (≈ 1620 µM) | 1000 (≈ 6480 µM) | 500 (≈ 3240 µM) | > 1000 | 250 (≈ 1620 µM) | 1000 (≈ 6480 µM) | 500 (≈ 3240 µM) | > 1000 | 250 (≈ 1620 µM) | 1000 (≈ 6480 µM) | 250 (≈ 1620 µM) | 1000 (≈ 6480 µM) | – |
| CC(C)=CCC[C@](C)(O)[C@@H]1CC=C(C)CC1 [α-bisabolol] | > 10,000 a μg/mL | > 10,000 a μg/mL | 635 ± 22 a μg/mL | 500 (≈ 2250 µM) | 1000 (≈ 4500 µM) | 8 (≈ 36 µM) | 32 (≈ 144 µM) | 8 (≈ 36 µM) | 32 (≈ 144 µM) | 125 (≈ 562 µM) | 500 (≈ 2250 µM) | 500 (≈ 2250 µM) | > 1000 | 250 (≈ 1120 µM) | 1000 (≈ 4500 µM) | 1000 (≈ 4500 µM) | > 1000 | – |
| Kaempferol-3-O-Rutinoside | 0.808 ± 0.024 c μg/mL | 0.719 ± 0.016 c μg/mL | 0.908 ± 0.021 µg/mL | – | – | – | – | – | – | – | – | – | – | – | – | – | – | Tyrosinase inhibition IC50 (mushroom tyrosinase; listed as kaempferol-3-O-rutinosid): < 1 µg/mL; MBC [2]: > 1000 µg/mL; MIC [2]: 500 µg/mL; MBC [3]: > 1000 µg/mL; MIC [3]: 500 µg/mL; MBC [4]: 1000 µg/mL; MIC [4]: 500 µg/mL; MBC [5]: 1000 µg/mL; MIC [5]: 500 µg/mL; MBC [6]: > 1000 µg/mL; MIC [6]: 500 µg/mL; MBC [7]: 1000 µg/mL; MIC [7]: 250 µg/mL; MFC [8]: 1000 µg/mL; MIC [8]: 250 µg/mL |
| CC(C)=CCCC(C)CCO (centres unmarked) [Citronellol] | > 10000a μg/mL | > 10,000 a μg/mL | 825 ± 31 a μg/mL | 250 (≈ 1600 µM) | 500 (≈ 3200 µM) | 250 (≈ 1600 µM) | 1000 (≈ 6400 µM) | 250 (≈ 1600 µM) | 500 (≈ 3200 µM) | 125 (≈ 800 µM) | 500 (≈ 3200 µM) | 250 (≈ 1600 µM) | 1000 (≈ 6400 µM) | 125 (≈ 800 µM) | 500 (≈ 3200 µM) | 250 (≈ 1600 µM) | 500 (≈ 3200 µM) | – |
| O=c1c(O[C@@H]2O[C@H](CO)[C@H](O)[C@H](O)[C@H]2O)c(-c2ccc(O)c(O)c2)oc2cc(O)cc(O)c12 [Hyperoside] | 0.695 ± 0.021 c μg/mL | 0.526 ± 0.014 c μg/mL | 0.762 ± 0.018 µg/mL | 250 (≈ 538 µM) | 1000 (≈ 2150 µM) | 250 (≈ 538 µM) | 500 (≈ 1080 µM) | 250 (≈ 538 µM) | 500 (≈ 1080 µM) | 250 (≈ 538 µM) | 1000 (≈ 2150 µM) | 250 (≈ 538 µM) | 500 (≈ 1080 µM) | 250 (≈ 538 µM) | 1000 (≈ 2150 µM) | 250 (≈ 538 µM) | 1000 (≈ 2150 µM) | Tyrosinase inhibition IC50 (mushroom tyrosinase; listed as hyperoside): < 1 µg/mL |
| Clc1ccc(COC(Cn2ccnc2)c2ccc(Cl)cc2Cl)c(Cl)c1 (centres unmarked) [Miconazole Nitrate] | – | – | – | – | 16 | – | – | – | – | – | – | – | – | – | – | 8 | – | – |
| O=c1cc(-c2ccc(O)c(O)c2)oc2cc(O)cc(O)c12 [Luteolin] | 0.507 ± 0.015 c μg/mL | 0.436 ± 0.026 c μg/mL | 0.613 ± 0.016 µg/mL | – | 1000 (≈ 3490 µM) | 125 (≈ 437 µM) | 500 (≈ 1750 µM) | 500 (≈ 1750 µM) | 1000 (≈ 3490 µM) | – | 500 (≈ 1750 µM) | – | – | 500 (≈ 1750 µM) | > 1000 | – | 500 (≈ 1750 µM) | – |
| CN(C)[C@@H]1C(=O)C(C(N)=O)=C(O)[C@@]2(O)C(=O)C3=C(O)c4c(O)cccc4[C@@](C)(O)[C@H]3C[C@@H]12.Cl [Hydrochloride tetracycline] | – | – | – | – | – | – | – | – | – | – | – | – | – | – | – | – | – | MBC [3]: 2 µg/mL; MIC [3]: 2 µg/mL; MBC [4]: < 0.1 µg/mL; MIC [4]: < 0.1 µg/mL; MIC [5]: 8 µg/mL; MIC [6]: 8 µg/mL |
